Data set [1] has as its system mechanical allodynia after chronic constriction injury (CCI) to the sciatic nerve. Briefly: Mechanical allodynia by response to von Frey fibers, rat chronic constriction injury (CCI) model. Type of data set: in vivo, male Sprague-Dawley rats. Conditions: 10 mg/kg IP, 2 hr post dosing. The method in brief: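 Male Sprague-Dawley rats with unilateral CCI (four loose ligatures around the right sciatic nerve; left side sham). 50% paw withdrawal threshold to von Frey filaments was measured blinded before and 2 h after a single i.p. dose (n=5-6). Value is the change from pre-dosing baseline.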

Data set [2] deals with IL-1β production in LPS-stimulated human peripheral blood mononuclear cells. The experiment in a line: Inhibition of LPS-stimulated IL-1β release from PBMCs. Type of data set: cell-based. The settings on record: PBMC, LPS-stimulated cytokine release from PBMCs. On the procedure: (§1) IC50 values were determined for representative compounds of the invention based upon their ability to inhibit LPS-induced cytokine production in human peripheral blood mononuclear cells. Human PBMCs (peripheral blood mononuclear cells) were isolated over a Ficoll gradient from buffy coats obtained from the local Red Cross. 10^6 PBMC cells/well were seeded in 24-well tissue culture plates in RPMI 1640 medium supplemented with 10% human serum, hepes buffer and sodium pyruvate. The cells were treated with 0.1% DMSO (vehicle) or test compounds (1, 10, and 100 uM) 30 minutes prior to activation with LPS (lipopolysaccharide) (E. Coli) at 10 ng/mL. 6-10 hours post LPS stimulation the culture supernatants were collected and levels of cytokines TNF-α and IL-1β were quantified by ELISA (R&D Systems) and/or Luminex (Linco Diagnostics). IC50 calculations were plotted using a nonlinear regression curve fit for exemplary substituted pyrazolo[1,5-a]pyridine compounds of the invention; results are provided in Table 2.

Data set [3] relates to TNF-α production in LPS-stimulated human peripheral blood mononuclear cells. The experiment in a line: Inhibition of LPS-stimulated TNF-α release from PBMCs. Conditions: PBMC. Type of data set: cell-based. On the procedure: as §1
For data set [4], the target named is phosphodiesterase (PDE) enzyme derived from bovine brain. Briefly: Inhibition of PDE (PDELight kit, cAMP substrate). The settings on record: PDE from brain extract, cAMP as substrate. It counts as biochemical. As for the experimental part:
In a 96-well plate, phosphodiesterase (PDE) enzyme (0.5-1 mU/well) derived from bovine brain (Sigma) was combined with 5 uM cAMP substrate (Sigma). Test compounds (0-200 uM) or vehicle (0.5% DMSO) were added to the enzyme/substrate and incubated for 1 hour. Using a PDELight® kit (Cambrex), the amount of AMP produced in the reaction from the hydrolysis of cAMP was quantified using PDELight AMP Detection Reagent which converts the AMP directly to ATP. The assay uses luciferase, which catalyses the formation of light from the newly formed ATP and luciferin. The luminescence was read on a Victor Light 1420 luminometer. IC50 calculations were plotted using a nonlinear regression curve fit.

[5] abbreviates: LPS-stimulated cytokine release from PBMCs, read-out: TNF-α (IC50).

Six molecules from patent publication US7585875B2, “Substituted pyrazolo[1,5-a]pyridine compounds and their methods of use” (Avigen, Inc., priority 2006, dated 2009) can be followed below.

Read-outs that look alike come from different tables or passages of the source.

Consider `CCC(=O)c1c(C(C)C)nn2ccccc12` [Compound 1001, 1-(2-isopropylpyrazolo[1,5-a]pyridin-3-yl)propan-1-one], for which the melting point (in general, the temperature of the solid-liquid transition) is 41 to 43 °C. In data set [1], the “Mechanical Allodynia ΔWT (change from pre-dosing 50% withdrawal threshold)” value is recorded as 0 grams. In addition, the IC50 (usually the midpoint of a concentration-inhibition curve) in data set [2] is > 100 µM. The IC50 in data set [3] (setting [5]) amounted to 13 µM. Also, the IC50 in data set [3] (less than or equal to about 50 μM, PBMCs, read-out: IC50, LPS-induced cytokine production (cytokine not specified)) was ≤ 50 µM. Also, half-maximal inhibition in data set [4] (IC50) was put at 58 µM.
`CC(C)c1nn2ccccc2c1C(O)C(C)C` (stereo not shown) [Compound 1002, 1-(2-isopropylpyrazolo[1,5-a]pyridin-3-yl)-2-methylpropan-1-ol]: the melting point amounted to 69 °C. Further, in data set [1], the “Mechanical Allodynia ΔWT (change from pre-dosing 50% withdrawal threshold)” value is on record as 0.79 grams. The IC50 in data set [2] was > 100 µM. The IC50 in data set [3] (setting [5]) is > 100 µM. Further, the IC50 in data set [4] was > 200 µM.
For the molecule `CC(C)C(=O)c1c(-c2ccc(F)cc2)nn2cc(C(F)(F)F)ccc12` [Compound 1027, 1-(2-(4-fluorophenyl)-6-(trifluoromethyl)pyrazolo[1,5-a]pyridin-3-yl)-2-methylpropan-1-one], the melting point lay in the range of 129 to 130 °C. The “Mechanical Allodynia ΔWT (change from pre-dosing 50% withdrawal threshold)” value in data set [1] was 0 grams. Moreover, the IC50 in data set [4] was > 200 µM.
`CC(C)c1nn2ccccc2c1C(=O)C1CC1` [Compound 1046, cyclopropyl(2-isopropylpyrazolo[1,5-a]pyridin-3-yl)methanone] displayed a melting point of 72 °C. Further, the “Mechanical Allodynia ΔWT (change from pre-dosing 50% withdrawal threshold)” value in data set [1] is 0 grams. For the same molecule, the IC50 in data set [4] is 33.3 µM.
`O=C(c1c(C2CC2)nn2ccccc12)C1CC1` [Compound 1047, cyclopropyl(2-cyclopropylpyrazolo[1,5-a]pyridin-3-yl)methanone] gave a melting point of 102 to 104 °C. The “Mechanical Allodynia ΔWT (change from pre-dosing 50% withdrawal threshold)” value in data set [1] is 0.68 grams. The same molecule showed a half-inhibitory concentration (IC50) in data set [4] of 15.4 µM.
In the case of `CC(CNCc1ccccc1)C(=O)c1c(C(C)C)nn2ccccc12.Cl` (stereo not shown) [compound 1066, 3-(benzylamino)-1-(2-isopropylpyrazolo[1,5-a]pyridin-3-yl)-2-methylpropan-1-one hydrochloride], the melting point lay within 171 to 175 °C. In addition, the “Mechanical Allodynia ΔWT (change from pre-dosing 50% withdrawal threshold)” value in data set [1] is reported as 0.1 grams.
